Laboratory results as given in patent US20240018154A1, “NEW INDAZOLE DERIVATIVES” (Hoffmann-La Roche Inc., priority 2020, published 2024).

Each compound was assayed against T1, EGFR LRCS (BaF3-LRCS cell line) (Homo sapiens, UniProt P00533, C797S/L858R) (assay: HTRF Phospho EGFR LRCS assay (cellular)). Details: BaF3-LRCS cells, 4 hours incubation with compound, Phospho-EGFR HTRF readout.
T1 construct: host or cells: BaF3 (BaF3-LRCS engineered line, kept under puromycin)
T1 sequence (P00533 25-1210 C797S/L858R): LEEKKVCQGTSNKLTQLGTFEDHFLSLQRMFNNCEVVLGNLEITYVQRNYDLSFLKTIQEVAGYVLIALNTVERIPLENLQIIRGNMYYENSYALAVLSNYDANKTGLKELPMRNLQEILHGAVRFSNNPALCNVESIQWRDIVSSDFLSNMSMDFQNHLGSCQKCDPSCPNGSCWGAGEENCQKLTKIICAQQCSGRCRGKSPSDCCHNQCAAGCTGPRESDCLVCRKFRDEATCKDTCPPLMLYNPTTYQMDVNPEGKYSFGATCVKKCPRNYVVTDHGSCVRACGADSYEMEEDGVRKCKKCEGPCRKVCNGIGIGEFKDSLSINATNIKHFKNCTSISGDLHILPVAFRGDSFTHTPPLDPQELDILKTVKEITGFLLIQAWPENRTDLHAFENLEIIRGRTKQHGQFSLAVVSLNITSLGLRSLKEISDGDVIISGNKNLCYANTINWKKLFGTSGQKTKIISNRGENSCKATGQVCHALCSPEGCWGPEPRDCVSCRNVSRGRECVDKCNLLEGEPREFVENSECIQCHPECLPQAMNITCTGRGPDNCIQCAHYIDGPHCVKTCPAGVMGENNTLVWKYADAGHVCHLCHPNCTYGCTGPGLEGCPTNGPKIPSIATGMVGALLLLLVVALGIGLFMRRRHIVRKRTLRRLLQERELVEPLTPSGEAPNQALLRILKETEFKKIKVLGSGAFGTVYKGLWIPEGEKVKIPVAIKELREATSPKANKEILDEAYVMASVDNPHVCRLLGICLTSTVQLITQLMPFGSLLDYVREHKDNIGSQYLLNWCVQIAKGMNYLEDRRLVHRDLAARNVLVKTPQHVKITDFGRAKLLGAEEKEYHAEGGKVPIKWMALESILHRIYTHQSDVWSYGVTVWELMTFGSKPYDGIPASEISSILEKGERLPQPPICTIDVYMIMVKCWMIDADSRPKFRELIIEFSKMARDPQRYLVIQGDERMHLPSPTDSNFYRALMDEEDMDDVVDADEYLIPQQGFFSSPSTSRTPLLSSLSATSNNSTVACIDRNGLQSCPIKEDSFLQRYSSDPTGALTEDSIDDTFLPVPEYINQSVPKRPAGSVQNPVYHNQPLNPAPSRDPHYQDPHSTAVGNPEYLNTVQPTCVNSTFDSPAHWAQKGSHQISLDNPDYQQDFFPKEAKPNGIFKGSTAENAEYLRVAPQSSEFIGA
Type: cell-based
Description: HTRF Phospho EGFR LRCS Assay (Cellular)
BaF3-LRCS cell line were obtained from Crownbio (San Diego, CA, USA). Cells were maintained at 37° C., 5% CO2 in RPMI ATCC (Gibco 31870)+2 mM Glutamine+0.5 μg/ml Puromycin supplemented with 10% fetal bovine serum (FBS) (Gibco).
Cells are transferred as above to Greiner Bio-One, Nr. 784-08 micro-titerplate at 20000 cells/well in 12.5 μl of growth medium/well after the plates had been pre-filled with 12.5 nl of DMSO solutions of the to be tested compounds (in dose response) or DMSO only. After spinning the plates at 300×g for 30 seconds the cells were incubated for 4 hours at 37 C, 5% CO2, 95% humidity. The cells were lysed by adding to the compound mix 4 μl/well of the supplemented lysis buffer (Cis-bio, Phospho-EGFR HTRF kit, 64EG1PEH), followed by incubation for 30 min at room temperature with shaking (400 rpm). The plates were then frozen and stored overnight at −80° C. On the next day and after thawing the plates, 4 μl of a mixture of anti-Phospho-EGFR Cryptate and of anti-Phospho-EGFR-d2 antibody solutions prepared in the supplied detection buffer was added to each well. The lidded plates were then incubated for 4 h at room temperature before reading the fluorescence emission at 616 and 665 nm using an Envision reader (Perkin Elmer). Data was analyzed in similar fashion as above using the normalized ratio of the 665 to 616 signals multiplied by 10000.
`CCN1CC[C@@H](c2ccc(-c3cc(C(F)F)c4cn(C(C(=O)Nc5nccs5)c5ncn6c5C[C@@H](F)C6)nc4c3C)cc2)[C@H](F)C1` (single isomer, unassigned) [Example 2, 2-[4-(Difluoromethyl)-6-[4-[(3S,4S)-1-ethyl-3-fluoro-4-piperidyl]phenyl]-7-methyl-indazol-2-yl]-2-[(6R)-6-fluoro-6,7-dihydro-5H-pyrrolo[1,2-c]imidazol-1-yl]-N-thiazol-2-yl-acetamide or 2-[4-(Difluoromethyl)-6-[4-[(3R,4R)-1-ethyl-3-fluoro-4-piperidyl]phenyl]-7-methyl-indazol-2-yl]-2-[(6R)-6-fluoro-6,7-dihydro-5H-pyrrolo[1,2-c]imidazol-1-yl]-N-thiazol-2-yl-acetamide] was tested, and the IC50 was 15 nM.
With `Cc1c(-c2ccc(C3CC(CN4CCC(O)CC4)C3)cc2)cc(C(F)F)c2cn(C(C(=O)Nc3nccs3)c3ncn4c3C[C@@H](F)C4)nc12` (stereo partly drawn) [Example 17, 2-[4-(Difluoromethyl)-6-[4-[3-[(4-hydroxy-1-piperidyl)methyl]cyclobutyl]phenyl]-7-methyl-indazol-2-yl]-2-[(6R)-6-fluoro-6,7-dihydro-5H-pyrrolo[1,2-c]imidazol-1-yl]-N-thiazol-2-yl-acetamide] the IC50 was 30 nM.
Work on `Cc1c(-c2ccc(N3CCOCC3)nc2)cc(C(F)F)c2cn(C(C(=O)Nc3nccs3)c3ncn4c3C[C@@H](F)C4)nc12` (stereo partly drawn) [Example 21, 2-[4-(Difluoromethyl)-7-methyl-6-(6-morpholino-3-pyridyl)indazol-2-yl]-2-[(6R)-6-fluoro-6,7-dihydro-5H-pyrrolo[1,2-c]imidazol-1-yl]-N-thiazol-2-yl-acetamide] yielded an IC50 of 12 nM.
`Cc1c(-c2ccc(OCCN3CCC(C(C)O)CC3)cc2)cc(C(F)F)c2cn(C(C(=O)Nc3nccs3)c3ncn4c3C[C@@H](F)C4)nc12` (stereo partly drawn) [Example 22, 2-[4-(Difluoromethyl)-6-[4-[2-[4-(1-hydroxyethyl)-1-piperidyl]ethoxy]phenyl]-7-methyl-indazol-2-yl]-2-[(6R)-6-fluoro-6,7-dihydro-5H-pyrrolo[1,2-c]imidazol-1-yl]-N-thiazol-2-yl-acetamide] showed an IC50 of 30 nM.
Compound `Cc1c(-c2ccc(N3CCOCC3)cc2)cc(C(F)F)c2cn(C(C(=O)Nc3nccs3)c3ncn4c3CCC4)nc12` (stereo not drawn) [Example 8, 2-[4-(Difluoromethyl)-7-methyl-6-(4-morpholinophenyl)indazol-2-yl]-2-(6,7-dihydro-5H-pyrrolo[1,2-c]imidazol-1-yl)-N-thiazol-2-yl-acetamide] has an IC50 of 17 nM.
In the case of `Cc1c(-c2ccc(C3CCN(CC(C)F)CC3)cc2)cc(C(F)F)c2cn(C(C(=O)Nc3nccs3)c3ncn4c3C[C@@H](F)C4)nc12` (stereo partly drawn) [Example 23, 2-[4-(Difluoromethyl)-6-[4-[1-(2-fluoropropyl)-4-piperidyl]phenyl]-7-methyl-indazol-2-yl]-2-[(6R)-6-fluoro-6,7-dihydro-5H-pyrrolo[1,2-c]imidazol-1-yl]-N-thiazol-2-yl-acetamide], the IC50 is reported as 21 nM.
In the case of `Cc1c(-c2ccc(CCN(C)C)cc2)cc(C(F)F)c2cn(C(C(=O)Nc3nccs3)c3ncn4c3C[C@@H](F)C4)nc12` (stereo partly drawn) [Example 4, 2-[4-(Difluoromethyl)-6-[4-[2-(dimethylamino)ethyl]phenyl]-7-methyl-indazol-2-yl]-2-[(6R)-6-fluoro-6,7-dihydro-5H-pyrrolo[1,2-c]imidazol-1-yl]-N-thiazol-2-yl-acetamide], the IC50 is reported as 11 nM.
In the case of `Cc1c(-c2ccc(CCN3CCC(O)CC3)cc2)cc(C(F)F)c2cn(C(C(=O)Nc3nccs3)c3ncn4c3C[C@@H](F)C4)nc12` (stereo partly drawn) [Example 27, 2-[4-(Difluoromethyl)-6-[4-[2-(4-hydroxy-1-piperidyl)ethyl]phenyl]-7-methyl-indazol-2-yl]-2-[(6R)-6-fluoro-6,7-dihydro-5H-pyrrolo[1,2-c]imidazol-1-yl]-N-thiazol-2-yl-acetamide], the IC50 is reported as 28 nM.
Compound `Cc1c(-c2ccc(N3CCN(CCO)CC3)cc2)cc(C(F)F)c2cn(C(C(=O)Nc3nccs3)c3ncn4c3C[C@@H](F)C4)nc12` (stereo partly drawn) [Example 20, 2-[4-(Difluoromethyl)-6-[4-[4-(2-hydroxyethyl)piperazin-1-yl]phenyl]-7-methyl-indazol-2-yl]-2-[(6R)-6-fluoro-6,7-dihydro-5H-pyrrolo[1,2-c]imidazol-1-yl]-N-thiazol-2-yl-acetamide] has an IC50 of 12 nM.
